# pIC50: −log10 of the molar value.
# System: MM.1S cells
# Assay: Effect of the compound on the proliferation of MM.1S cells (MTS)
# Assay type: cell-based
# Conditions: Homo sapiens, MM1.S, 168 h, 7 days, read-out: Cell inhibitory activity (IC50)
# Procedure: MM.1S cells were cultured with 1640 plus 10% fetal bovine serum and collected. The cell concentration was diluted according to the action time of 7 days, and 180 ul cell suspension was added to each well of the 96-well cell plate to make the cell count to be 20,000. 20 ul of DMSO with a final concentration of 0.2% was added to the control cell wells. The compound was diluted 5-fold with the 10 mM stock solution, and 20 ul was also added to the compound cell wells (the final concentration of DMSO is 0.2%). The cells were placed in a 37° C., 5% CO2 incubator and incubated for 7 days. After preparing the reaction solution according to the MTS kit (Promega, G5430), 20 μL was added to each well, incubated in a 37° C., 5% CO2 incubator for 3-4 h. Read the 490 nm absorbance value with a microtiter plate, and used the 690 nm absorbance value as the background value and OD490-OD690 as the final initial data. The formula for calculating the inhibition rate of the compound is: inhibition rate=(OD DMSO-ODcompound)/(ODDMSO-Oblank)×100%. The compound's proliferation inhibition IC50 was fitted by Graph Pad Prism 5.0. The experiment was repeated three times, and three parallel experiments were used to calculate the average and standard deviation each time.
row,SMILES,pIC50
1,"O=C1CCC(N2Cc3c(OCc4cn(-c5ccc(OC6COC6)cc5)nn4)cccc3C2=O)C(=O)N1 (stereo not shown) [Compound 31, 3-(4-((1-(4-(epoxypropanoxy-3-oxy)phenyl)-1H-1,2,3-triazol-4-)methoxy)-1-oxoisoindolin-2-)piperidine-2,6-dione]",> 6.82
2,Cc1c(COc2cccc3c2CN(C2CCC(=O)NC2=O)C3=O)cnn1-c1c(Cl)cc(C(F)(F)F)cc1Cl (stereo not shown) [Compound 83],> 6.82
3,"O=C1CCC(N2Cc3c(OCc4cn(Cc5ccc(CN6CCOCC6)cc5)nn4)cccc3C2=O)C(=O)N1 (stereo not shown) [Compound 12, 3-(4-((1-(4-(morpholinomethyl)benzyl)-1H-1,2,3-triazol-4-)methoxy)-1-oxoisoindolin-2-) piperidine-2,6-dione]",> 6.82
4,"O=C1CCC(N2Cc3c(OCc4cn(CC5CCOCC5)nn4)cccc3C2=O)C(=O)N1 (stereo not shown) [Compound 48, 3-(1-oxo-4-((1-((tetrahydro-2H-pyran-4-)methyl)-1H-1,2,3-triazol-4-)methoxy)isoindolin-2-) piperidine-2,6-dione]",4.70 to 6.82
5,O=C1CCC(N2Cc3c(OCc4cn(-c5ccc(CCO)cc5)nn4)cccc3C2=O)C(=O)N1 (stereo not shown) [Compound 33],> 6.82
6,"O=C1CCC(N2Cc3c(OCCC4CN(c5ccnc6ccccc56)C4)cccc3C2=O)C(=O)N1 (stereo not shown) [Compound 69, 3-(1-oxo-4-(2-(1-(quinolin-4-)azetidin-3-)ethoxy)isoindolin-2-) piperidine-2,6-dione]",4.70 to 6.82
7,"O=C1CCC(N2Cc3c(OCC4CCN(c5ccnc6ccccc56)CC4)cccc3C2=O)C(=O)N1 (stereo not shown) [Compound 67, 3-(1-oxo-4-((1-(quinolin-4-)piperidin-4-)methoxy)isoindolin-2-) piperidin-2,6-dione]",> 6.82
8,"COC(=O)c1cccc(Cn2cc(COc3cccc4c3CN(C3CCC(=O)NC3=O)C4=O)nn2)c1 (stereo not shown) [Compound 10, Methyl 3-((4-(((2-(2,6-dioxopiperidin-3-)-1-oxoisoindolin-4-)oxo)methyl)-1H-1,2,3-triazol-1-)methyl) benzoate]",> 6.82
9,"O=C1CCC(N2Cc3c(CCCc4cnc(-c5ccc(OC(F)(F)F)cc5)o4)cccc3C2=O)C(=O)N1 (stereo not shown) [Compound 63, 3-(1-oxo-4-(3-(2-(4-(trifluoromethoxy)phenyl)oxazol-5-yl)propyl)isoindolin-2-yl) piperidine-2,6-dione]",< 4.70
10,"O=C1CCC(N2Cc3c(CCc4cnc(-c5ccc(OC(F)(F)F)cc5)o4)cccc3C2=O)C(=O)N1 (stereo not shown) [Compound 62, 3-(1-oxo-4-(2-(2-(4-(trifluoromethoxy)phenyl)oxazol-5-yl)ethyl)isoindolin-2-yl) piperidine-2,6-dione]",> 6.82
11,"O=C1CCC(N2Cc3c(OCc4cn(Cc5ccc(N6CCOCC6)cc5)nn4)cccc3C2=O)C(=O)N1 (stereo not shown) [Compound 8, 3-(4-((1-(4-morpholinbenzyl)-1H-1,2,3-triazol-4-)methoxy)-1-oxoisoindolin-2-) piperidine-2,6-dione]",> 6.82
12,O=C1CCC(N2Cc3c(OCc4cn(Cc5ccc6[nH]cnc6c5)nn4)cccc3C2=O)C(=O)N1 (stereo not shown) [Compound 13],4.70 to 6.82
13,"C[C@H](Cc1ccccc1)n1cc(COc2cccc3c2CN(C2CCC(=O)NC2=O)C3=O)nn1 (stereo partly drawn) [Compound 58, 3-(1-oxo-4-((1-((R)-1-phenylpropyl-2-)-1H-1,2,3-triazol-4-)methoxy)isoindolin-2-) piperidine-2,6-dione]",> 6.82
14,"C[C@@H](Cc1ccccc1)n1cc(COc2cccc3c2CN(C2CCC(=O)NC2=O)C3=O)nn1 (stereo partly drawn) [Compound 59, 3-(1-oxo-4-((1-((S)-1-phenylpropyl-2-)-1H-1,2,3-triazol-4-)methoxy)isoindolin-2-) piperidine-2,6-dione]",> 6.82
15,"COCCn1ccc2cc(-n3cc(COc4cccc5c4C(=O)N([C@@]4(C)CCC(=O)NC4=O)C5=O)nn3)ccc21 [Compound 37, (S)-4-((1-(1-(2-methoxyethyl)-1H-indole-5-)-1H-1,2,3-triazol-4-)methoxy)-2-(3-methyl-2,6-dioxopiperidine-3-) isoindolin-1,3-dione]",4.70 to 6.82
16,C[C@@H](c1ccccc1)n1cc(COc2cccc3c2CN(C2CCC(=O)NC2=O)C3=O)nn1 (stereo partly shown) [Compound 51],> 6.82

# Source: patent US20220041578A1, “ISOINDOLINE COMPOUND, AND PREPARATION METHOD, PHARMACEUTICAL COMPOSITION, AND APPLICATION OF ISOINDOLINE COMPOUND” (Shanghai Institute of Meteria Medica, Chinese Academy of …, priority 2018, published 2022)
